Tests used:
Format in all cases: in vivo
[1] = test system: Tetranychus urticae; experiment: BP80 Tetranychus urticae mixed population, feeding/contact activity, preventative; conditions: bean leaf discs, mixed ages, 8 days
Experimental: (§1) BP80s (break points for 80% mortality) were obtained for Pyrifluquinazon and Flonicamid against the following pests: Heliothis virescens, Plutella xylostella, Tetranychus urticae and Cydia pomonella. The specific method used for each pest is outlined below. Heliothis virescens (Tobacco Budworm): ovo-larvicide, feeding/contact activity, curative Eggs (0-24 h old) are placed in a 24-well microtiter plate on artificial diet and treated with test solutions by pipetting. After an incubation period of 5 days, samples are checked for egg mortality and larval mortality. Selectable application rates: 500-0.05 ppm Plutella xylostella (Diamondback Moth): larvicide, feeding/residual contact activity, preventative 24-well microtiter plates with artificial diet are treated with test solutions by pipetting. After drying, the plates are infested with L2 larvae (10-15 per well). After an incubation period of 5 days, samples are checked for larval mortality. Selectable application rates: 500-0.05 ppm Tetranychus urticae (Two-Spotted Spider Mite): Mixed Population feeding/contact activity, preventative Bean leaf discs on agar in 24-well microtiter plates are sprayed with test solutions. After drying, the leaf discs are infested with mite populations of mixed ages. 8 days later, discs are checked for egg mortality, larval mortality, and adult mortality. […]

[2] = test system: Anthonomus grandis; experiment: B.4 field trial, insecticidal activity against Anthonomus grandis in cotton
Experimental: Trials were carried out in a randomized complete block design, each comprising of 4 replicates, plot size of 30 m^2. Application was carried out with a pressurized knap sack sprayer. 200 liters of spray volume was applied per ha. 4 applications were carried out in 5 days interval, the first application at BBCH 51. Flonicamid was applied as a 50% WG, and Pyrifluquinaon as a 10% WP. Efficacy was evaluated 2 days after 4th and 7 days after 4th application. 50 squares were counted per plot and the percentage reduction of damaged squares in comparison to untreated control was calculated after the ABBOTT formula.

[3] = test system: Heliothis virescens; experiment: BP80 Heliothis virescens ovo-larvicide, feeding/contact activity, curative; conditions: eggs on artificial diet, 5 days incubation
Experimental: as §1

[4] = test system: Cydia pomonella; experiment: BP80 Cydia pomonella larvicide, contact/feeding activity, preventative; conditions: L1 larvae on diet cubes, 14 days after infestation
Experimental: as §1

[5] = test system: Anthonomus grandis; experiment: B.3 field trial, insecticidal activity against Anthonomus grandis in cotton; conditions: 75 g ai/ha, 50% WG
Experimental: Trials were carried out in a randomized complete block design, each comprising of 4 replicates and a plot size of 30 m^2. Application was carried out with a pressurized knap sack sprayer. 200 liters of spray volume was applied per ha. 3 applications were carried out in 5 days interval, the first application at BBCH 51. Flonicamid was applied as a 50% WG. Efficacy was evaluated 2 days after 2nd and 5 days after 3rd application. 50 squares were counted per plot and the percentage reduction of damaged squares in comparison to untreated control was calculated after the ABBOTT formula.

[6] = test system: Plutella xylostella; experiment: BP80 Plutella xylostella larvicide, feeding/residual contact activity, preventative; conditions: L2 larvae on artificial diet, 5 days incubation
Experimental: as §1

[7] = test system: Anthonomus adults; experiment: B.5 immobility effect, contact spray on Anthonomus adults; conditions: 300 ppm contact spray; for no of insects at infestation site (A) / no of insects capable of leaving the infestation site (B) + (C) / no of insects in test arena, not on diet (C) / no of insects on diet (B): 50 beetles
Experimental: In this test 50 freshly hatched beetles were treated with FLON (IF 050 formulation) and PYQU (VVG 50 formulation). Using a turntable spray, 300 ppm of a 200 g ai/ha formulation were sprayed directly on the beetles. The control beetles (“check”) were sprayed with water. The petri dish was then placed in the test arena next to which was placed a diet situated 23 cm above ground. After a certain time periods shown below in the table, the number of beetles on different sites was counted: […]

[8] = test system: Anthonomus grandis; experiment: B.2 field trial, insecticidal activity against Anthonomus grandis in cotton; conditions: 75 g ai/ha, 50% WG
Experimental: Trials were carried out in a randomized complete block design, each comprising of 4 replicates, plot size of 30 m^2. Application was carried out with a pressurized knap sack sprayer. 200 liters of spray volume was applied per ha. 4 applications were carried out in 5 days interval. Flonicamid was applied as a 50% WG Efficacy was evaluated 2 days after 2nd application and 4 days after 4th application. 50 squares were counted per plot and the % reduction of damaged squares in comparison to untreated control was calculated after the ABBOTT formula.

N#CCNC(=O)c1cnccc1C(F)(F)F [Flonicamid, N-(cyanomethyl)-4-(trifluoromethyl)-3-pyridinecarboxamide]
BP80 (break point for 80% mortality) [1]: >200 ppm
% reduction of damaged squares ([2]; 75 g ai/ha, 2 days after 4th application): 65%
% reduction of damaged squares ([2]; 75 g ai/ha, 7 days after 4th application): 50%
% reduction of damaged squares ([2]; 150 g ai/ha, 2 days after 4th application): 81%
% reduction of damaged squares ([2]; 150 g ai/ha, 7 days after 4th application): 52%
BP80 (break point for 80% mortality) [3]: >200 ppm
BP80 (break point for 80% mortality) [4]: >50 ppm
% reduction of damaged squares ([5]; 2 days after 2nd application): 67%
% reduction of damaged squares ([5]; 5 days after 3rd application): 52%
BP80 (break point for 80% mortality) [6]: >200 ppm
immobility effect disappeared with time (rank order) [7]: PYQU>FLON
no of insects at infestation site (A) ([7]; 3 hours): 37
no of insects capable of leaving the infestation site (B) + (C) ([7]; 3 hours): 13
no of insects in test arena, not on diet (C) ([7]; 3 hours): 11
no of insects on diet (B) ([7]; 3 hours): 2
no of insects at infestation site (A) ([7]; 6 hours): 44
no of insects capable of leaving the infestation site (B) + (C) ([7]; 6 hours): 6
no of insects in test arena, not on diet (C) ([7]; 6 hours): 3
no of insects on diet (B) ([7]; 6 hours): 3
no of insects at infestation site (A) ([7]; 24 hours): 37
no of insects capable of leaving the infestation site (B) + (C) ([7]; 24 hours): 13
no of insects in test arena, not on diet (C) ([7]; 24 hours): 6
no of insects on diet (B) ([7]; 24 hours): 7
no of insects at infestation site (A) ([7]; 32 hours): 21
no of insects capable of leaving the infestation site (B) + (C) ([7]; 32 hours): 29
no of insects in test arena, not on diet (C) ([7]; 32 hours): 3
no of insects on diet (B) ([7]; 32 hours): 26
no of insects at infestation site (A) ([7]; 48 hours): 14
no of insects capable of leaving the infestation site (B) + (C) ([7]; 48 hours): 36
no of insects in test arena, not on diet (C) ([7]; 48 hours): 6
no of insects on diet (B) ([7]; 48 hours): 30
no of insects at infestation site (A) ([7]; 52 hours): 10
no of insects capable of leaving the infestation site (B) + (C) ([7]; 52 hours): 40
no of insects in test arena, not on diet (C) ([7]; 52 hours): 3
no of insects on diet (B) ([7]; 52 hours): 37
no of insects at infestation site (A) ([7]; 72 hours): 9
no of insects capable of leaving the infestation site (B) + (C) ([7]; 72 hours): 41
no of insects in test arena, not on diet (C) ([7]; 72 hours): 7
no of insects on diet (B) ([7]; 72 hours): 34
no of insects at infestation site (A) ([7]; 78 hours): 5
no of insects capable of leaving the infestation site (B) + (C) ([7]; 78 hours): 45
no of insects in test arena, not on diet (C) ([7]; 78 hours): 6
no of insects on diet (B) ([7]; 78 hours): 39
no of insects at infestation site (A) ([7]; 144 hours): 15
no of insects capable of leaving the infestation site (B) + (C) ([7]; 144 hours): 35
no of insects in test arena, not on diet (C) ([7]; 144 hours): 3
no of insects on diet (B) ([7]; 144 hours): 32
no of insects at infestation site (A) ([7]; 150 hours): 5
no of insects capable of leaving the infestation site (B) + (C) ([7]; 150 hours): 45
no of insects in test arena, not on diet (C) ([7]; 150 hours): 1
no of insects on diet (B) ([7]; 150 hours): 44
% reduction of damaged squares ([8]; 2 days after 2nd application): 50%
% reduction of damaged squares ([8]; 4 days after 4th application): 57%

CC(=O)N1C(=O)N(NCc2cccnc2)Cc2cc(C(F)(C(F)(F)F)C(F)(F)F)ccc21 [Pyrifluquinazon, 1-acetyl-3,4-dihydro-3-[(3-pyridinylmethyl)amino]-6-[1,2,2,2-tetrafluoro-1-(trifluoromethyl)ethyl]-2(1H)-quinazolinone]
BP80 (break point for 80% mortality) [1]: >200 ppm
% reduction of damaged squares ([2]; 100 g ai/ha, 2 days after 4th application): 77%
% reduction of damaged squares ([2]; 100 g ai/ha, 7 days after 4th application): 37%
% reduction of damaged squares ([2]; 200 g ai/ha, 2 days after 4th application): 85%
% reduction of damaged squares ([2]; 200 g ai/ha, 7 days after 4th application): 48%
BP80 (break point for 80% mortality) [3]: >200 ppm
BP80 (break point for 80% mortality) [6]: >200 ppm
immobility effect disappeared with time (rank order) [7]: PYQU>FLON
no of insects at infestation site (A) ([7]; 3 hours): 45
no of insects capable of leaving the infestation site (B) + (C) ([7]; 3 hours): 5
no of insects in test arena, not on diet (C) ([7]; 3 hours): 1
no of insects on diet (B) ([7]; 3 hours): 4
no of insects at infestation site (A) ([7]; 6 hours): 45
no of insects capable of leaving the infestation site (B) + (C) ([7]; 6 hours): 5
no of insects in test arena, not on diet (C) ([7]; 6 hours): 2
no of insects on diet (B) ([7]; 6 hours): 3
no of insects at infestation site (A) ([7]; 24 hours): 39
no of insects capable of leaving the infestation site (B) + (C) ([7]; 24 hours): 11
no of insects in test arena, not on diet (C) ([7]; 24 hours): 3
no of insects on diet (B) ([7]; 24 hours): 8
no of insects at infestation site (A) ([7]; 32 hours): 27
no of insects capable of leaving the infestation site (B) + (C) ([7]; 32 hours): 23
no of insects in test arena, not on diet (C) ([7]; 32 hours): 4
no of insects on diet (B) ([7]; 32 hours): 19
no of insects at infestation site (A) ([7]; 48 hours): 28
no of insects capable of leaving the infestation site (B) + (C) ([7]; 48 hours): 22
no of insects in test arena, not on diet (C) ([7]; 48 hours): 4
no of insects on diet (B) ([7]; 48 hours): 18
no of insects at infestation site (A) ([7]; 52 hours): 30
no of insects capable of leaving the infestation site (B) + (C) ([7]; 52 hours): 20
no of insects in test arena, not on diet (C) ([7]; 52 hours): 6
no of insects on diet (B) ([7]; 52 hours): 14
no of insects at infestation site (A) ([7]; 72 hours): 30
no of insects capable of leaving the infestation site (B) + (C) ([7]; 72 hours): 20
no of insects in test arena, not on diet (C) ([7]; 72 hours): 6
no of insects on diet (B) ([7]; 72 hours): 14
no of insects at infestation site (A) ([7]; 78 hours): 24
no of insects capable of leaving the infestation site (B) + (C) ([7]; 78 hours): 26
no of insects in test arena, not on diet (C) ([7]; 78 hours): 4
no of insects on diet (B) ([7]; 78 hours): 22
no of insects at infestation site (A) ([7]; 144 hours): 15
no of insects capable of leaving the infestation site (B) + (C) ([7]; 144 hours): 35
no of insects in test arena, not on diet (C) ([7]; 144 hours): 4
no of insects on diet (B) ([7]; 144 hours): 31
no of insects at infestation site (A) ([7]; 150 hours): 15
no of insects capable of leaving the infestation site (B) + (C) ([7]; 150 hours): 35
no of insects in test arena, not on diet (C) ([7]; 150 hours): 2
no of insects on diet (B) ([7]; 150 hours): 33

From patent US20140228381A1, “METHODS OF CONTROLLING INSECTS OF THE FAMILY CURCOLIONIDAE” (SYNGENTA PARTICIPATIONS AG, priority 2011, published 2014)
